We go through eight compounds from patent US9832999B1, “Bicyclic compounds as pest control agents” (BAYER CROPSCIENCE AKTIENGESELLSCHAFT, priority 2014, dated 2017).

The structures appear in SMILES notation.

One test deals with Myzus persicae. Put plainly: Myzus persicae - spray test. The conditions noted are these: foliar, 144 h, application rate 500 g/ha, after 6 days, Chinese cabbage leaf discs, all stages of green peach aphid, 100% = all aphids killed, read-out: efficacy. The test is classed as in vivo. On the procedure: To produce further test concentrations, the formulation is diluted with emulsifier-containing water.
Turning to `CON(C)C(=O)c1cc2cn(-c3cccnc3)nc2cn1` [Compound 11], the pest or weed control at 500 g/ha came to 90%.

For the compound `CNC(=O)c1cc2cn(-c3cnccn3)nc2cn1` [Compound 14], the pest or weed control at 500 g/ha was 90%. On the same count and under the same terms, with `CNC(=O)c1cc2cn(-c3cncc(F)c3)nc2cn1` [Compound 19] the figure was 90%. Same read-out and setting: under `CN(C)C(=O)c1cc2cn(-c3cncc(F)c3)nc2cn1` [Compound 20] stands 90%; under `CON(C)C(=O)c1cc2cn(-c3cncc(F)c3)nc2cn1` [Compound 26], 90%; under `O=C(NC1CC1)c1cc2cn(-c3cccnc3)nc2cn1` [Compound 29], 90%. Still for that read-out and setting: with `CCNC(=O)c1cc2cn(-c3cccnc3)nc2cn1` [Compound 31] the figure was 90%; with `O=C(NCC(F)F)c1cc2cn(-c3cccnc3)nc2cn1` [Compound 36], 90%.

For the next test, the system named is Musca domestica. The test is described as follows: Musca domestica test. The conditions noted are these: application rate 100 ppm; after 2 days; adult houseflies; 100% = all flies killed. The test is classed as in vivo. On the procedure:
• Solvent: dimethyl sulfoxide
To produce a suitable preparation of active compound, 10 mg of active compound are mixed with 0.5 ml of dimethyl sulfoxide, and the concentrate is diluted with water to the desired concentration.
Vessels containing a sponge treated with sugar solution and the active compound formulation of the desired concentration are populated with 10 adult houseflies (Musca domestica).
After 2 days, the kill in % is determined. 100% means that all of the flies have been killed; 0% means that none of the flies have been killed.
As to `CNC(=O)c1cc2cn(-c3cnccn3)nc2cn1` [Compound 14], the “efficacy (kill)” value is 80%.
